Data on 2 compounds can be found in PMC9551036, “A selective and orally bioavailable VHL-recruiting PROTAC achieves SMARCA2 degradation in vivo” (Nature Communications, 2022).

Where “and” joins values, the source holds several entries; their conditions need not be identical. Equal entries are not always repeated. A value given as a limit tells only on which side of the number the result lay.

Series [1] can be described thus: Cell viability assay (CellTiter Glo) in NCI-H1568.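 Note: percent of DMSO-treated control cells.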 It counts as cell-based, human. As to conditions: human, NCI-H1568 cells, NCI-H1568; log10 conc -5.90309 mol/l. An outline of the steps:
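This proliferation assay used human NCI-H1568 cells seeded at 500–2000 cells per well into 96-well white, clear-bottom plates containing 180–200 µl medium. Compounds were dispensed digitally the following day alongside a T0 reference measurement. Cells and CellTiter Glo reagent were brought to room temperature, incubated 10–20 min with shaking, and luminescence was read.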
In general terms: Cellular ATP, detected with luciferase, serves as a proxy for viable cell number.

A further series deals with SMARCA4 (Homo sapiens, UniProt P51532). Description: Ex vivo human whole blood assay, SMARCA4. As to conditions: for HillSlope (best-fit value): four-parameter fit; for Bottom (best-fit value) / Span (best-fit value) / Top (best-fit value): four-parameter fit of % protein remaining. Details: endogenous in cells. It counts as cell-based. The method, then: The assay was performed on human whole blood from three healthy donors, purchased from the Austrian Red Cross who always obtain samples under informed consent. […] Subsequently, peripheral blood mononucleated cells (PBMCs) were isolated from individual aliquots using SepMate Tubes (StemCell) and Lymphoprep (StemCell) medium according to the manufacturer’s instructions and protein lysates were prepared using MSD Lysis buffer (Mesocale Discovery) supplemented with 1:100 Halt Phosphatase-Protease Inhibitor Cocktail (Thermo Fisher), 0.5 µl/ml benzonase (Novagen) and 10 mM DTT. SMARCA2 and SMARCA4 protein levels were determined using capillary electrophoresis (Bio-Techne) according to manufacturer’s instructions. Incubation with primary antibodies for SMARCA2 (Cell Signalling #11966 clone D9E8B RRID:AB_2797783 1:25), SMARCA4 (Abcam #ab110641 clone EPNCIR111A RRID:AB_10861578 1:25) and GAPDH (Abcam, #ab9485 RRID:AB_307275 1:1000) were performed for 30 min.

Series [2] concerns NCI-H1568 tumour xenograft. Description: NCI-H1568 xenograft tumour growth. The class given is in vivo, mouse. As to conditions: for Tumor volume: qd, individual animals; for TGI: NCI-H1568 xenograft, day 17. On the procedure: To establish subcutaneous tumours, mice were injected with 5 × 10^6 NCI-H1568 in PBS with 5% FCS or with 1 × 10^7 A549 cells in PBS with 5% FCS. Tumour diameters were measured with a caliper three times a week. The volume of each tumour (in mm^3) was calculated according to the formula [tumour volume = length × diameter^2 × π/6]. To monitor side effects of treatment, mice were inspected daily for abnormalities and body weight was determined daily after the start of treatment. Animals were sacrificed when the tumours reached a size of 1500 mm^3. Mice were randomised into treatment groups when the average tumour size reached ~210–220 mm^3. Group sizes were calculated individually for each tumour model based on tumour growth during model establishment experiments. A power analysis was performed using a sample size calculator (https://www.stat.ubc.ca/~rollin/stats/ssize/n2.html). For both models used in the study, 10 mice per group were used for each experiment. All administrations were dosed with 10 ml/kg (s.c. and oral). Control mice were dosed subcutaneously with 10% HP-β-CD in 50% Ringer solution and orally with 15% HP-β-CD, that means the control mouse treatment was corresponding to the solvent of the compounds. Compound 6 was dosed subcutaneously either in a d1-4 q3d, d6-8 q2d, d11-13 q2d treatment (Treatment 1) or a q3 or 4d treatment (Treatment 2).
For the evaluation of the statistical significance of tumour growth inhibition, a one-tailed nonparametric Mann-Whitney-Wilcoxon U-test was performed, based on the hypothesis that an effect would only be measurable in one direction (i.e. expectation of tumour inhibition but not tumour stimulation). Analysis was performed on the day indicated for each experiment. The p values obtained from the U-test were adjusted using the Bonferroni-Holm correction. By convention, p values ≤0.05 indicate significance of differences.

Chain of SMARCA4 (P51532 whole entry): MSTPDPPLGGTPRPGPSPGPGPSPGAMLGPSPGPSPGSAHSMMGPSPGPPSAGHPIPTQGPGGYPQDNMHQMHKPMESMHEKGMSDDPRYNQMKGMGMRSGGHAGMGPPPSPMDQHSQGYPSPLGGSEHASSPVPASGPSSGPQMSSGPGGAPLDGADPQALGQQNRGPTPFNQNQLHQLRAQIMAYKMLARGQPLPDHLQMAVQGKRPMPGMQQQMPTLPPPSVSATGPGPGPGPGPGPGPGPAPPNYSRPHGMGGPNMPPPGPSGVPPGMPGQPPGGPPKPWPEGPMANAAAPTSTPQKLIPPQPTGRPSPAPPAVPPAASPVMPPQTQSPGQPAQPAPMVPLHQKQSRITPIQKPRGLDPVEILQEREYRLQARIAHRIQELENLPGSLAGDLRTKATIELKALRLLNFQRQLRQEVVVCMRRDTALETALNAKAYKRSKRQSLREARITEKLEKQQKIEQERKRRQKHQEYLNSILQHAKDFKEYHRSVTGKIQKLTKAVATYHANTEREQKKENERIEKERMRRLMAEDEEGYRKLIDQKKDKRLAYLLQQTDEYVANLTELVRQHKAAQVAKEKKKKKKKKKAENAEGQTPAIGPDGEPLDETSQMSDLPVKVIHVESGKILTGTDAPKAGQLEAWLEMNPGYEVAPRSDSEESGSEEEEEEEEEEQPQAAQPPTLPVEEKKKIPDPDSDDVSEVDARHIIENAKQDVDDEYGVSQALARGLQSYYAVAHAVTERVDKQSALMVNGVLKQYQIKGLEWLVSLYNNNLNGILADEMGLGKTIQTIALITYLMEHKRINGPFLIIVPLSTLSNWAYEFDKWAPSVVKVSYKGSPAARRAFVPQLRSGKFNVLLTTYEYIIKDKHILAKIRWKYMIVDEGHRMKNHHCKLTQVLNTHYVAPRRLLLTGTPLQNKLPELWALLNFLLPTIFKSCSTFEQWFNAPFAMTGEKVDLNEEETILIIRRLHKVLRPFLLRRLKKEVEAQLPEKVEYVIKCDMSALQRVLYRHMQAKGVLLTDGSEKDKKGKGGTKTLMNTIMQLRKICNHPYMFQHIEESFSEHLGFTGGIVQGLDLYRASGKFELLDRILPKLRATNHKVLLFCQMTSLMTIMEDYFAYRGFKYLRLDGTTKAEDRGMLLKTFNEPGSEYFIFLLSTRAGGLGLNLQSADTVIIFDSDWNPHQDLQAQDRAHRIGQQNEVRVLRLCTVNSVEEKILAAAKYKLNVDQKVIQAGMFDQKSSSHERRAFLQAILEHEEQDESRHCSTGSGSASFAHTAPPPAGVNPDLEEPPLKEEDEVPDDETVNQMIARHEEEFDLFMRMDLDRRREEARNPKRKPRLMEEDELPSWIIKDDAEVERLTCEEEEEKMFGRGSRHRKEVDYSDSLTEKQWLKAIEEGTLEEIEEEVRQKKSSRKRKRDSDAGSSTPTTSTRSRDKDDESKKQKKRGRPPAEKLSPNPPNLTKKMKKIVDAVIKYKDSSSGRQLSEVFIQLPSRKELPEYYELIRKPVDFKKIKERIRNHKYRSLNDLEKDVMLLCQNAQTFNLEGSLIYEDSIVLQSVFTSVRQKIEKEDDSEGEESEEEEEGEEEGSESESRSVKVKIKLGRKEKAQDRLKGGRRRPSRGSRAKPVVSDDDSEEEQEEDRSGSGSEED

Take `Cc1ncsc1-c1ccc(C(CCC(C)CCN2CCC(c3ccc4c(c3)n(C3CCCC3)c3nc(=O)c5c(Br)cccc5n43)CC2)NC(=O)C2CC(O)CN2C(=O)C(NC(=O)C2(F)CC2)C(C)(C)C)cc1` (stereo not shown) [ACBI2]: the viability at 1.25 µM in series [1] turned out to be 0.898%. The “% protein remaining, SMARCA4” value on SMARCA4 (Donor 1, log10[concentration (mol/l)] -6) is 46.277% and 56.0869% and 48.4826%; on SMARCA4 (Donor 1, log10[concentration (mol/l)] -6.47712), 107.389% and 70.5686% and 73.1116%; on SMARCA4 (Donor 1, log10[concentration (mol/l)] -6.95424) it was 84.4427% and 113.429% and 101.258%; on SMARCA4 (Donor 1, log10[concentration (mol/l)] -7.43136), 119.708% and 145.145% and 104.637%; on SMARCA4 (Donor 1, log10[concentration (mol/l)] -7.90848) it was 127.921% and 114.745% and 82.4839%; on SMARCA4 (Donor 1, log10[concentration (mol/l)] -8.38561), 104.578% and 95.4334% and 80.9398%. Besides, the “% protein remaining, SMARCA4” value was 50.102% and 76.224% and 84.3004% at SMARCA4 (Donor 2, log10[concentration (mol/l)] -6); 93.5183% and 92.0167% and 75.7642% on SMARCA4 (Donor 2, log10[concentration (mol/l)] -6.47712); 80.3377% and 113.951% and 102.967% on SMARCA4 (Donor 2, log10[concentration (mol/l)] -6.95424); 130.957% and 130.042% and 111.295% at SMARCA4 (Donor 2, log10[concentration (mol/l)] -7.43136); 121.533% and 102.344% and 98.5667% at SMARCA4 (Donor 2, log10[concentration (mol/l)] -7.90848); 105.689% and 139.901% and 105.419% at SMARCA4 (Donor 2, log10[concentration (mol/l)] -8.38561). Also, the “% protein remaining, SMARCA4” value is 54.3169% and 99.7184% and 98.048% at SMARCA4 (Donor 2, log10[concentration (mol/l)] -8.86273); 88.0329% and 79.2762% and 67.3837% on SMARCA4 (Donor 3, log10[concentration (mol/l)] -6.47712); 92.9994% and 98.4764% and 74.8427% on SMARCA4 (Donor 3, log10[concentration (mol/l)] -6.95424); 95.6107% and 82.1879% and 123.028% at SMARCA4 (Donor 3, log10[concentration (mol/l)] -7.43136); 125.23% and 122.739% and 76.3116% at SMARCA4 (Donor 3, log10[concentration (mol/l)] -7.90848); 96.5427% and 109.291% and 74.8647% on SMARCA4 (Donor 3, log10[concentration (mol/l)] -8.38561). Besides, the “% protein remaining, SMARCA4” value at SMARCA4 (Donor 3, log10[concentration (mol/l)] -8.86273) is 92.1949% and 111.194% and 102.774%. For the same compound, the “HillSlope (best-fit value)” value on SMARCA4 (Donor 1 SMARCA4) was -2.117; on SMARCA4 (Donor 2 SMARCA4) it was -2.11; on SMARCA4 (Donor 3 SMARCA4), -1.413. The entries for the “Bottom (best-fit value)” value on SMARCA4 (Donor 1 SMARCA4), at SMARCA4 (Donor 2 SMARCA4) and at SMARCA4 (Donor 3 SMARCA4) were 40.33%, 67.18% and 61.66%, respectively. The “Span (best-fit value)” value on SMARCA4 (Donor 1 SMARCA4) is 66.56%; on SMARCA4 (Donor 2 SMARCA4), 40.18%; at SMARCA4 (Donor 3 SMARCA4), 39.83%. In addition, the “Top (best-fit value)” value is reported as 106.9% at SMARCA4 (Donor 1 SMARCA4), 107.4% at SMARCA4 (Donor 2 SMARCA4) and 101.5% at SMARCA4 (Donor 3 SMARCA4). In addition, the “SMARCA4 degradation in human whole blood” value on SMARCA4 (up to a top concentration of 1 µM) is at most 50%.
Turning to `Cc1ncsc1-c1ccc([C@H](CCCCCN2CCC(c3ccc4c(c3)n(C3CCCC3)c3nc(=O)c5c(Br)cccc5n43)CC2)NC(=O)[C@@H]2C[C@@H](O)CN2C(=O)[C@@H](NC(=O)C2(F)CC2)C(C)(C)C)cc1` [compound 11], the Tumor volume in series [2] (30 mg/kg, Day 8) is 349.89 mm3 and 236.13 mm3 and 336.08 mm3 and 316.23 mm3 and 320.2 mm3 and 407.12 mm3 and 452.47 mm3 and 403.17 mm3 and 435.99 mm3 and 529.54 mm3; in series [2] (30 mg/kg, Day 10), 411.87 mm3 and 252.06 mm3 and 344.92 mm3 and 322.48 mm3 and 362.94 mm3 and 435.47 mm3 and 364.71 mm3 and 506.51 mm3 and 466.2 mm3 and 503.81 mm3; in series [2] (30 mg/kg, Day 13), 502.78 mm3 and 248.86 mm3 and 360.62 mm3 and 361.29 mm3 and 382.81 mm3 and 518.2 mm3 and 443.39 mm3 and 514.01 mm3 and 521.41 mm3 and 705.33 mm3; in series [2] (30 mg/kg, Day 15), 496.47 mm3 and 228.27 mm3 and 504.98 mm3 and 354.71 mm3 and 479.1 mm3 and 517.42 mm3 and 432.15 mm3 and 457.1 mm3 and 602.75 mm3 and 762.29 mm3; in series [2] (30 mg/kg, Day 17), 650.01 mm3 and 225.32 mm3 and 455.8 mm3 and 341.13 mm3 and 487.7 mm3 and 435.26 mm3 and 381.47 mm3 and 461.01 mm3 and 569.17 mm3 and 686.8 mm3; in series [2] (100 mg/kg, Day 8), 173.57 mm3 and 358.5 mm3 and 211.9 mm3 and 263.4 mm3 and 447.51 mm3 and 347.41 mm3 and 368.98 mm3 and 478.34 mm3 and 381.06 mm3 and 544.49 mm3. Besides, the Tumor volume was 207.49 mm3 and 318.53 mm3 and 166.3 mm3 and 272.68 mm3 and 439.29 mm3 and 419.1 mm3 and 347.63 mm3 and 427.12 mm3 and 399.48 mm3 and 552.76 mm3 in series [2] (100 mg/kg, Day 10); 196.26 mm3 and 416.62 mm3 and 227.85 mm3 and 452.58 mm3 and 404.81 mm3 and 268.98 mm3 and 439.16 mm3 and 468.07 mm3 and 536.7 mm3 in series [2] (100 mg/kg, Day 13); 224.98 mm3 and 458.86 mm3 and 260 mm3 and 554.09 mm3 and 490.11 mm3 and 263.77 mm3 and 439.21 mm3 and 536.89 mm3 and 543.63 mm3 in series [2] (100 mg/kg, Day 15); 221.9 mm3 and 357.16 mm3 and 324.28 mm3 and 608.34 mm3 and 580.36 mm3 and 307.51 mm3 and 368.83 mm3 and 566.83 mm3 and 599.71 mm3 in series [2] (100 mg/kg, Day 17); 230.91 mm3 and 452.52 mm3 and 264.14 mm3 in series [2] (100 mg/kg, Day 20). Further, the figures for the TGI in series [2] (30 mg/kg p.o. daily) and in series [2] (100 mg/kg p.o. daily) were 64% and 76%, respectively.

The viability is a per cent measure of how many cells are alive, often set against a control. Read a high viability as better survival. As a reminder, the TGI is how far tumour growth fell short of that in controls.
